US12090149B2, “SMAD3 inhibitors” (Moexa Pharmaceuticals Limited, priority 2018, dated 2024)
Where “and” joins values, the source holds several entries; their conditions need not be identical. Equal entries are not always repeated. Entries after “also recorded” stand apart in the source; their conditions may differ.

Assays:
[1] = tested on: B16-F10 syngeneic model; assay: Subcutaneous B16-F10 syngeneic model, tumor growth; assay type: in vivo, C57BL/6 mice; conditions: 30 mg/kg q.d. * 3W i.p.
[2] = tested on: B16-F10 syngeneic model; assay: Subcutaneous B16-F10 syngeneic model, tumor growth; assay type: in vivo, C57BL/6 mice
Experimental: In order to evaluate the in vivo efficacy of SIS3 and novel compounds of the present invention, a study has been conducted in treatment of the subcutaneous B16-F10 syngeneic models.
• Animal species and strain: C57BL/6 mice • History of treatment: Naive • Sex, age and weight: Female, 6-8 weeks • Breeder/supplier: Shanghai SLAC Laboratory Animal Co. Ltd • Adaptation: At least 7 days • Room: SPF Room • Room temperature: 20-26° C. • Room relative humidity: 40-70% • Light cycle: Fluorescent light for 12-hour light (08:00-20:00) and 12-hour dark • Animal hosting: 2-5 mice/cage each group • Food: Free access to food • Water: Free access to water (municipal tap water filtered by reverse osmosis or high-pressure sterilizer)
B16-F10 cell was maintained at 37° C. under 5% CO2 in DMEM medium supplemented with 10% FBS and were subsequently cultured within 10 passages before inoculated into the mice.
B16-F10 cells (3×10^5 in 100 μL of serum-free medium) were inoculated to each of C57BL/6 mice via s.c. under anesthesia by 3-4% isoflurane. Each group contains 15 mice.
When average tumor volume reached 35-60 mm^3, 15 mice were randomized into group 6. The day of inoculation was denoted as day 0.
Tumor dimensions were measured on Day 4, 5, 6, 8, 11, 13, 15 and 18, after inoculation in 2 dimensions with calipers.
When required, tumor volume was measured daily. The tumor volume (V) was calculated as follows: V=(length×width^2)/2.
The individual relative tumor volume (RTV) was calculated as follows: RTV=Vt/V0, where Vt was the volume on each day, and V0 was the volume at the beginning of the treatment.
Tumor growth inhibition (TGI), TGI=(1−(Ti−T0)/(Ci−C0))×100%; Ti and Ci as the mean tumor volumes of the treatment and control groups on the measurement day; T0 and C0 as the mean tumor volumes of the treatment and control groups on day 0
Results were expressed as mean±S.E.M. Comparisons between two groups were made by Dunnett's multi-comparison test, p<0.05 were considered as significant.

[3] = target: CYP3A4 (Homo sapiens, UniProt P08684); assay: Cytochrome P450 inhibition assay, human liver microsomes, CYP3A4; conditions: 10 uM
Sequence of CYP3A4 (P08684 whole entry): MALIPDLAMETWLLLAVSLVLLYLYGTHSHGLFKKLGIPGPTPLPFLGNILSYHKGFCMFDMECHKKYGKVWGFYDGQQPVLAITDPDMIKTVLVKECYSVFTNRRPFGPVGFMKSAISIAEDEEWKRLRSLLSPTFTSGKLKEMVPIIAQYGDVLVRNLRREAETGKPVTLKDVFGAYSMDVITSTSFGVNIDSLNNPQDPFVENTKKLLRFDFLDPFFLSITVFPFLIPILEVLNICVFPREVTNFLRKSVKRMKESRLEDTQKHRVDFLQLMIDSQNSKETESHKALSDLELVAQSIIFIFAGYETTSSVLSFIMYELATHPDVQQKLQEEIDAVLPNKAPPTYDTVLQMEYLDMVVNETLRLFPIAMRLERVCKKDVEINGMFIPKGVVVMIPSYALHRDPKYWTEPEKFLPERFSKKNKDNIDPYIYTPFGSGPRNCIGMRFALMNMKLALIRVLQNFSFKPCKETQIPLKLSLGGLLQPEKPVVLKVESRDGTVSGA

[4] = single agent, i.p. QD*3 weeks, SIS3 10 and 30 mg/kg, MO-00005 10, 30 and 100 mg/kg, vs vehicle

In the case of `COc1cc2c(cc1OC)CN(C(=O)/C=C/c1c(-c3ccccc3)n(C)c3ncccc13)CC2.Cl` [SIS3, reference compound], the “Tumor growth inhibition (%) TGI” value ([1]; Day 13, calculated based on tumor volume of Day 8) is reported as 39%, the “Tumor growth inhibition (%) TGI” value ([1]; Day 15, calculated based on tumor volume of Day 8) is reported as 27% and the “Tumor growth inhibition (%) TGI” value ([1]; Day 18, calculated based on tumor volume of Day 8) is reported as 25%. For the same compound, the “Tumor Sizes (mm3) Mean” value ([2]; 10 mg/kg q.d. * 3W i.p., Day 4 (estimated value)) was 0.87 mm3, the “Relative tumor volume Mean” value ([2]; 10 mg/kg q.d. * 3W i.p., Day 4, RTV=Vt/V0) was 0.04 and the “Tumor Sizes (mm3) Mean” value ([2]; 10 mg/kg q.d. * 3W i.p., Day 5 (estimated value)) was 1.10 mm3 and 1.1 mm3. The “Relative tumor volume Mean” value ([2]; 10 mg/kg q.d. * 3W i.p., Day 5, RTV=Vt/V0) was 0.05, the “Tumor Sizes (mm3) Mean” value ([2]; 10 mg/kg q.d. * 3W i.p., Day 6 (estimated value)) was 3.36 mm3 and the “Relative tumor volume Mean” value ([2]; 10 mg/kg q.d. * 3W i.p., Day 6, RTV=Vt/V0) was 0.12. For the same compound, the “Tumor Sizes (mm3) Mean” value ([2]; 10 mg/kg q.d. * 3W i.p., Day 8) was 43.65 mm3, the “Relative tumor volume Mean” value ([2]; 10 mg/kg q.d. * 3W i.p., Day 8, RTV=Vt/V0) was 1.00 and the “Tumor Sizes (mm3) Mean” value ([2]; 10 mg/kg q.d. * 3W i.p., Day 11) was 156.77 mm3. The “Relative tumor volume Mean” value ([2]; 10 mg/kg q.d. * 3W i.p., Day 11, RTV=Vt/V0) was 4.07, the “Tumor growth inhibition (%) TGI” value ([2]; 10 mg/kg q.d. * 3W i.p., Day 11, calculated based on tumor volume of Day 8) was 29% and the “Tumor Sizes (mm3) Mean” value ([2]; 10 mg/kg q.d. * 3W i.p., Day 13) was 443.17 mm3. For the same compound, the “Relative tumor volume Mean” value ([2]; 10 mg/kg q.d. * 3W i.p., Day 13, RTV=Vt/V0) was 12.20, the “Tumor growth inhibition (%) TGI” value ([2]; 10 mg/kg q.d. * 3W i.p., Day 13, calculated based on tumor volume of Day 8) was 26% and the “Tumor Sizes (mm3) Mean” value ([2]; 10 mg/kg q.d. * 3W i.p., Day 15) was 793.01 mm3. For the same compound, the “Relative tumor volume Mean” value ([2]; 10 mg/kg q.d. * 3W i.p., Day 15, RTV=Vt/V0) was 22.19, the “Tumor growth inhibition (%) TGI” value ([2]; 10 mg/kg q.d. * 3W i.p., Day 15, calculated based on tumor volume of Day 8) was 25% and the “Tumor Sizes (mm3) Mean” value ([2]; 10 mg/kg q.d. * 3W i.p., Day 18) was 2209.13 mm3. The “Relative tumor volume Mean” value ([2]; 10 mg/kg q.d. * 3W i.p., Day 18, RTV=Vt/V0) was 62.21, the “Tumor growth inhibition (%) TGI” value ([2]; 10 mg/kg q.d. * 3W i.p., Day 18, calculated based on tumor volume of Day 8) was 21% and the “Tumor Sizes (mm3) Mean” value ([2]; 30 mg/kg q.d. * 3W i.p., Day 4 (estimated value)) was 0.28 mm3. For the same compound, the “Relative tumor volume Mean” value ([2]; 30 mg/kg q.d. * 3W i.p., Day 4, RTV=Vt/V0) was 0.01, the “Tumor Sizes (mm3) Mean” value ([2]; 30 mg/kg q.d. * 3W i.p., Day 5 (estimated value)) was 0.46 mm3 and the “Relative tumor volume Mean” value ([2]; 30 mg/kg q.d. * 3W i.p., Day 5, RTV=Vt/V0) was 0.01. For the same compound, the “Tumor Sizes (mm3) Mean” value ([2]; 30 mg/kg q.d. * 3W i.p., Day 6 (estimated value)) was 3.44 mm3, the “Relative tumor volume Mean” value ([2]; 30 mg/kg q.d. * 3W i.p., Day 6, RTV=Vt/V0) was 0.12 and the “Tumor Sizes (mm3) Mean” value ([2]; 30 mg/kg q.d. * 3W i.p., Day 8) was 49.16 mm3. For the same compound, the “Relative tumor volume Mean” value ([2]; 30 mg/kg q.d. * 3W i.p., Day 8, RTV=Vt/V0) was 1.00, the “Tumor Sizes (mm3) Mean” value ([2]; 30 mg/kg q.d. * 3W i.p., Day 11) was 163.60 mm3 and 163.6 mm3 and the “Relative tumor volume Mean” value ([2]; 30 mg/kg q.d. * 3W i.p., Day 11, RTV=Vt/V0) was 3.98. For the same compound, the “Tumor growth inhibition (%) TGI” value ([2]; 30 mg/kg q.d. * 3W i.p., Day 11, calculated based on tumor volume of Day 8) was 28%, the “Tumor Sizes (mm3) Mean” value ([2]; 30 mg/kg q.d. * 3W i.p., Day 13) was 379.84 mm3 and the “Relative tumor volume Mean” value ([2]; 30 mg/kg q.d. * 3W i.p., Day 13, RTV=Vt/V0) was 9.22. The “Tumor Sizes (mm3) Mean” value ([2]; 30 mg/kg q.d. * 3W i.p., Day 15) was 786.37 mm3, the “Relative tumor volume Mean” value ([2]; 30 mg/kg q.d. * 3W i.p., Day 15, RTV=Vt/V0) was 23.71 and the “Tumor Sizes (mm3) Mean” value ([2]; 30 mg/kg q.d. * 3W i.p., Day 18) was 2131.42 mm3. The “Relative tumor volume Mean” value ([2]; 30 mg/kg q.d. * 3W i.p., Day 18, RTV=Vt/V0) was 70.14, the “anti-tumor activity against the B16-F10 syngeneic model (in words)” value [2, 4] was “anti-tumor response; also recorded: significant anti-tumor activity” and the “efficacy on tumor weight (in words)” value [2, 4] was “significant efficacy on tumor weight”. For the same compound, the “CYP3A inhibition (HLM, midazolam substrate) Inhibition (%)” value ([3]; midazolam substrate) was 20.5499% and the “CYP3A inhibition (HLM, testosterone substrate) Inhibition (%)” value ([3]; testosterone substrate) was 9.294%.
